Results: patent US9598370B2, “Prolyl hydroxylase inhibitors and methods of use” (Akebia Therapeutics, Inc., priority 2006, dated 2017)

Assays:
EPO = test: Mouse serum EPO assay (mouse ischemic hindlimb study); format: in vivo
Description: (§1) Mouse Ischemic Hindlimb Study
(§2) All animal work is conducted in accordance with the Guide for the Care and Use of Laboratory Animals (National Academy of Sciences; Copyright© 1996) and the Institutional Animal Care and Use Committee guidelines at Procter and Gamble Pharmaceuticals. We studied 9-10 week old male C57Bl/6 mice from Charles River Laboratory (Portage, Mich.). The mice are orally dosed with vehicle (aqueous carbonate buffer, 50 mM; pH 9.0) or compound 1 in vehicle at 50 mg/kg or 100 mg/kg. The animals are dosed three times: day 1 at 8 am and 5 pm, day 2 at 8 am. One hour after the first dose, unilateral arterial ligation is performed under anesthesia using isoflurane. The femoral artery is ligated proximal to the origin of the popliteal artery. The contralateral limb underwent a sham surgical procedure. Ligation is performed in an alternating fashion between right and left hindlimbs. Two hours after 8 am dosing on day 2, we obtained blood by ventricular stick while the mice are anesthetized with isoflurane. Serum samples for EPO analysis are obtained using gel clot serum separation tubes. Heart, liver, and gastrocnemius muscles are harvested, snap-frozen in liquid nitrogen, and stored in −80° C. until use.
The mouse serum EPO is detected using Mouse Quantikine Erythropoietin ELISA kit from R&D Systems according to manufacturer's instructions.

HIF-1α = test: Mouse tissue HIF Western blot analysis; format: in vivo
Description: as §1, §2
Mouse Tissue HIF Western Blot Analysis
Tissues from mice stored at −80° C. are powdered with mortar and pestle chilled with liquid nitrogen. […]

[1] = target: Full-length recombinant human EGLN-3 (His-MBP-TVMVEGLN-3 fusion) (Homo sapiens (Human), UniProt Q9H6Z9); test: EGLN-3 enzyme activity assay (MALDI-TOF MS); format: biochemical; details: recombinant human EGLN-3 fusion; HIF-1α peptide 556-574 substrate; read-out: EGLIN3 IC50
Description: Hydroxylated peptide product is identified from substrate by the gain of 16 Da. Data defined as percent conversion of substrate to product is analyzed in GraphPad Prism 4 to calculate IC50 values.

Chain of Full-length recombinant human EGLN-3 (His-MBP-TVMVEGLN-3 fusion) (Q9H6Z9 whole entry, the tested form may be a part): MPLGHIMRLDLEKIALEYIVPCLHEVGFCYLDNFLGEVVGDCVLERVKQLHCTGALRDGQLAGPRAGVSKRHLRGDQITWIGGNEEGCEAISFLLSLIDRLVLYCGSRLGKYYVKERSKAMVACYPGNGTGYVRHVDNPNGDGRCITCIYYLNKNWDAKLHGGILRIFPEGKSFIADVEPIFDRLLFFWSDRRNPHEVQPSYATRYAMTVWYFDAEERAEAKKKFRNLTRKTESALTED

IC50 [1] [nM] | Structure (SMILES) | erythropoietin level versus vehicle in mouse serum (FIG. 2) (EPO; mouse serum after oral dosing) | stabilization of HIF-1α in mouse liver (immunoblot of nuclear extracts, FIG. 1) (HIF-1α) | EPO response (EPO; in vivo response, mouse serum EPO)
 | O=C(O)CNC(=O)c1ncc(-c2cccc(Cl)c2)cc1O [{[5-(3-Chlorophenyl)-3-hydroxypyridine-2-carbonyl]amino}-acetic acid] | elevated | stabilization of HIF-1α | 
83 | O=C(O)CNC(=O)c1ncc(-c2ccc(Cl)cc2)cc1O [{[5-(4-Chlorophenyl)-3-hydroxypyridine-2-carbonyl]amino}-acetic acid] |  |  | yes
